Literature values in patent US7696365B2 (Chugai Seiyaku Kabushiki Kaisha, priority 2003, dated 2010).

Tests used:
[1] = test system: human breast cancer cells
[2] = test system: muscle (M) isoform of CPT-I; details: read-out: IC50 of malonyl-CoA inhibition, muscle isoform

| IC50 [2] | Structure (SMILES) | malonyl-CoA level ([1]; breast carcinoma cells) | antitumor activity ([1]; human breast cancer cells and xenografts) |
| --- | --- | --- | --- |
|  | CCCCCCCCCCCCCCOc1ccc(C(=O)O)o1 [TOFA, 5-(tetradecyloxy)-2-furoic acid] | 60 % of the control | does not show any antitumor activity |
| 30 nM | CC(C)(COP(=O)(O)OP(=O)(O)OC[C@H]1O[C@@H](n2cnc3c(N)ncnc32)[C@H](O)[C@@H]1OP(=O)(O)O)[C@@H](O)C(=O)NCCC(=O)NCCSC(=O)CC(=O)O [malonyl-CoA, Malonyl-CoA] |  |  |
